Our source for the IC50 values is US6458806B1, “Aryl alkenamides derivatives as MCP-1 antagonists” (Millennium Pharmaceuticals, Inc., priority 1996, dated 2002).

Where a name gives a salt, the structure may show the parent alone.

One assay addresses T1, MCP-1 receptor (Homo sapiens, UniProt P41597).
T1 construct: host or cells: THP-1 cell membranes
The experiment in a line: MCP-1 binding assay (125I-MCP-1, THP-1 cell membranes). The settings on record: 0.2 nM 125I-labeled MCP-1, averages of several or two experiments, read-out: Inhibition Of MCP-1 Binding IC50. As for the experimental part:
Membranes used in the MCP-1 binding assay were prepared from THP-1 cells (human monocytic cell line source—American Type Culture Collection, Tumor Immunology Bank #202, Rockville, Md., accession no. ATCC TIB 202). Cells were harvested by centrifugation and washed twice in ice-cold PBS (phosphate-buffered saline) and the cell pellet was frozen at −80° C. in some cases. Cells were resuspended in ice-cold lysis buffer 5mM HEPES (2-(4N-,[2-hydroxyethyl] piperazin-1-yl)-N′-(2-ethanesulfonic acid), pH 7.5, 2 mM EDTA (ethylenediaminetetraacetic acid), 5 ug/ml each leupeptin, aprotinin, chymostatin (protease inhibitors), and 100 ug/ml PMSF (phenylmethane sulfonyl fluoride—also a protease inhibitor)) at a concentration of 5×10^7 cells/ml. […] Typical binding assays used 10-20 ug/well of total membrane protein as determined with a standard protein assay (e.g. BioRad, Richmond, Calif.).
For binding, 10-20 ug total membrane protein were included in the binding reaction along with 0.2 nM I^125-labeled MCP-1 (Amersham, Arlington Heights, Ill.) with or without unlabeled competitor MCP-1 (Peprotech, Rocky Hill, N.J.) (at 250-500 nM). […] Filters were dried and counted in a Beta-Plate scintillation counter using standard scintillation fluid. […]
IC50s were calculated using a non-linear 3-parameter logistic curve fit. […]

A further assay has as its system CD3-Blasts. The experiment in a line: CD3-Blast chemotaxis assay (transendothelial migration to MCP-1). The assay is classed as cell-based. The note with it: ECV-304; migration of human CD3-Blasts to about 10 nM MCP-1 across ECV304 endothelial cells, approximately 1 hour. From the text:
CD3—Blast Chemotaxis Assay
Recombinant human MCP-1 was obtained from Peprotech (Rockey Hill, N.J.). T lymphocyte blast cells (CD3-Blasts) were generated by standard protocols (Coligan, J. E., A. M. Kruisbeek, D. H. Macgulies, E. M. Shevach, and W. Strober, editors. 1992. Current Protocols in Immunology. John Wiley and Sons, New York, 7.1.2, 7.10.1-7.10.10). Briefly, human peripheral blood mononuclear cells (PBMC) were isoltated from heparinized venous blood by Percoll density gradient centrifugation (d=1.088) at room temperature. RBCs were removed by hypotonic lysis or Dextran sedimentation. […] CD3-Blast chemotaxis was assessed no sooner than 3 to 4 days after transfer to the IL-2 containing medium using a modification of a transendothelial migration assay (Carr. M. W., S. J. Roth, B. Luther, S. S. Rose, and T. A. Springer. 1994. Monocyte chemoattractant protein 1 acts as a T-lymphocyte chemoattractant. Proc. Natl. Acad. Sci. USA 91:3652-6). […] Background migration was determined by counting cells that migrated in the absence of MCP-1 in the lower chamber. […] The percent inhibition by compounds of directed migration was determined by the following formula: [formula] […]

T1 sequence (P41597 whole entry): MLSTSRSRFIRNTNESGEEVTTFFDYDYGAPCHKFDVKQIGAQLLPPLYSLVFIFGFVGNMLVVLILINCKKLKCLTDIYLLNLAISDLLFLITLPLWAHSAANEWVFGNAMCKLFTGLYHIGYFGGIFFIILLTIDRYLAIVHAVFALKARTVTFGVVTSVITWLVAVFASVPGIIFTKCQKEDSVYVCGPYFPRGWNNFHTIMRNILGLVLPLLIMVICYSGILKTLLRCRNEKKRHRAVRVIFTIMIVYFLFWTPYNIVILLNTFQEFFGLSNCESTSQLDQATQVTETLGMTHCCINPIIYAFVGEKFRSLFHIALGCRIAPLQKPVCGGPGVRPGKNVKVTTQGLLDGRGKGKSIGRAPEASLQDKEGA

In the case of `O=C(/C=C/C=C/c1ccc(Cl)c(Cl)c1)NCCCN1CCCCC1` [Example 1, 5-(3,4-Dichloro-phenyl)-penta-2,4-dienoic Acid (3-piperidin-1-yl-propyl)-amide-HCl], the half-inhibitory concentration (IC50) at MCP-1 receptor stood at 2200 nM; with CD3-Blasts, 23 µM.
